Measurements taken from patent US20220227707A1, “COMPOUNDS AND COMPOSITIONS FOR TREATING CONDITIONS ASSOCIATED WITH NLRP ACTIVITY” (Novartis AG, priority 2019, published 2022).
Blank lines part the entries; values can stand above or below the molecule they belong to.

System: IL-1β production in PMA-differentiated THP-1 cells
Test: IL-1β production in PMA-differentiated THP-1 cells stimulated with gramicidin (hTHP-1 assay)
Assay type: cell-based, human
Description: Procedure 1: IL-1β Production in PMA-Differentiated THP-1 Cells Stimulated with Gramicidin
THP-1 cells were purchased from the American Type Culture Collection and sub-cultured according to instructions from the supplier. Cells were cultured in complete RPMI 1640 (containing 10% heat inactivated FBS, penicillin (100 units/ml) and streptomycin (100 μg/ml)), and maintained in log phase prior to experimental setup. Prior to the experiment, compounds were dissolved in dimethyl sulfoxide (DMSO) to generate a 30 mM stock. The compound stock was first pre-diluted in DMSO to 3, 0.34, 0.042 and 0.0083 mM intermediate concentrations and subsequently spotted using Echo550 liquid handler into an empty 384-well assay plate to achieve desired final concentration (e.g. 100, 33, 11, 3.7, 1.2, 0.41, 0.14, 0.046, 0.015, 0.0051, 0.0017 μM). DMSO was backfilled in the plate to achieve a final DMSO assay concentration of 0.37%. The plate was then sealed and stored at room temperature until required.
THP-1 cells were treated with PMA (Phorbol 12-myristate 13-acetate) (20 ng/ml) for 16-18 hours. On the day of the experiment the media was removed and adherent cells were detached with trypsin for 5 minutes. Cells were then harvested, washed with complete RPMI 1640, spun down, and resuspended in RPMI 1640 (containing 2% heat inactivated FBS, penicillin (100 units/ml) and streptomycin (100 μg/ml). The cells were plated in the 384-well assay plate containing the spotted compounds at a density of 50,000 cells/well (final assay volume 50 μl). Cells were incubated with compounds for 1 hour and then stimulated with gramicidin (5 μM) (Enzo) for 2 hours. Plates were then centrifuged at 340 g for 5 min. Cell free supernatant ([…]) was collected using a 96-channel PlateMaster (Gilson) and the production of IL-1β was evaluated by HTRF (cisbio). The plates were incubated for 18 h at 4° C. and read using the preset HTRF program (donor emission at 620 nm, acceptor emission at 668 nm) of the SpectraMax i3x spectrophotometer (Molecular Devices, software SoftMax 6). A vehicle only control and a dose titration of CRID3 (100-0.0017 μM) were run concurrently with each experiment.
Procedure 2: […] Production in PMA-Differentiated THP-1 Cells Stimulated with Gramicidin
THP-1 cells were purchased from the American Type Culture Collection and sub-cultured according to instructions from the supplier. Prior to experiments, cells were cultured in complete RPMI 1640 (containing 10% heat inactivated FBS, penicillin (100 units/ml) and streptomycin (100 μg/ml)), and maintained in log phase prior to experimental setup. Prior to the experiment THP-1 were treated with PMA (Phorbol 12-myristate 13-acetate) (20 ng/ml) for 16-18 hours. Compounds were dissolved in dimethyl sulfoxide (DMSO) to generate a 30 mM stock. On the day of the experiment the media was removed and adherent cells were detached with trypsin for 5 minutes. Cells were then harvested, washed with complete RPMI 1640, spun down, resuspended in RPMI 1640 (containing 2% heat inactivated FBS, penicillin (100 units/ml) and streptomycin (100 μg/ml). The cells were plated in a 384-well plate at a density of 50,000 cells/well (final assay volume 50 μl). Compounds were first dissolved in assay medium to obtain a 5× top concentration of 500 μM. 10 step dilutions (1:3) were then undertaken in assay medium containing 1.67% DMSO. 5× compound solutions were added to the culture medium to achieve desired final concentration (e.g. 100, 33, 11, 3.7, 1.2, 0.41, 0.14, 0.046, 0.015, 0.0051, 0.0017 μM). Final DMSO concentration was at 0.37%. Cells were incubated with compounds for 1 hour and then stimulated with gramicidin (5 μM) (Enzo) for 2 hours. Plates were then centrifuged at 340 g for 5 min. Cell free supernatant (40 μL) was collected using a 96-channel PlateMaster (Gilson) and the production of IL-1β was evaluated by HTRF (cisbio). A vehicle only control and a dose titration of CRID3 (100-0.0017 μM) were run concurrently with each experiment. […]

[1] = Homo sapiens, THP-1, Average IC50, hTHP-1 assay containing 2% fetal bovine serum, Table 10, class symbols
[2] = Average IC50, hTHP-1 assay containing 2% fetal bovine serum, Table 10, class symbols
[3] = Homo sapiens, THP-1, Average IC50, hTHP-1 assay containing 2% fetal bovine serum, Table 10, numeric values
[4] = Average IC50, hTHP-1 assay containing 2% fetal bovine serum, Table 10, numeric values

IC50 [1]: 5 to 30 µM
SMILES: CS(N)(=O)=NC(=O)Nc1c2c(cc3c1CCC3)CCC2 (centres unmarked) [Compound 115, N′-((1,2,3,5,6,7-hexahydro-s-indacen-4-yl)carbamoyl) methane-sulfonimidamide]

IC50 [2]: 0.04 to 0.2 µM
SMILES: CC(C)(O)c1ccc(CS(N)(=O)=NC(=O)Nc2c3c(cc4c2CCC4)CCC3)cc1 (single isomer, unassigned) [Compound 165b]

IC50 (Homo sapiens, THP-1, Average IC50, hTHP-1 assay containing 2% fetal bovine serum, Table 3B, class symbols): 5 to 30 µM
SMILES: CC(C)c1cc(C#N)cc(C(C)C)c1CC(=O)NS(=O)(=O)N1CCCCC1 [Compound 201B, 2-(4-cyano-2,6-diisopropylphenyl)-N-(piperidin-1-ylsulfonyl)acetamide]

IC50 [1]: 5 to 30 µM
SMILES: CN1CCC(CS(N)(=O)=NC(=O)Nc2c3c(cc4c2CCC4)CCC3)C1 (single isomer, unassigned) [Compound 114]

IC50 [3]: > 100 µM
SMILES: COC(=O)CS(=O)(=O)NC(=O)Cc1c(C(C)C)cc(F)cc1C(C)C [Compound 501]

IC50 [4]: > 30 µM
SMILES: CC(C)c1cc(F)cc(C(C)C)c1CC(=O)N=S(N)(=O)C1CCCC1 (centres unmarked) [Compound 305]

IC50 [1]: 5 to 30 µM
SMILES: CC(=O)NS(C)(=O)=NC(=O)Nc1c2c(cc3c1CCC3)CCC2 (centres unmarked) [Compound 111]

IC50 [4]: > 30 µM
SMILES: NS(=O)(=NC(=O)Nc1c2c(cc3c1CCC3)CCC2)C1CCCCC1 (centres unmarked) [Compound 148]

IC50 [2]: 1 to 5 µM
SMILES: CC(CN(C)C)CS(N)(=O)=NC(=O)Nc1c2c(cc3c1CCC3)CCC2 (centres unmarked) [Compound 125, 3-(dimethylamino)-N′-((1,2,3,5,6,7-hexahydro-s-indacen-4-yl)carbamoyl)-2-methylpropane-1-sulfonimidamide]

IC50 [4]: > 30 µM
SMILES: CN1CCC(S(N)(=O)=NC(=O)Nc2c3c(cc4c2CCC4)CCC3)CC1 (centres unmarked) [Compound 138]

IC50 [3]: > 30 µM
SMILES: CN1CCC(S(N)(=O)=NC(=O)Nc2c3c(cc4c2CCC4)CCC3)C1 (single isomer, unassigned) [Compound 134, N′-((1,2,3,5,6,7-hexahydro-s-indacen-4-yl)carbamoyl)-1-methylpyrrolidine-3-sulfonimidamide]
